Experiments:
[1] = AUC in Wistar rat brain at 40 mg/kg, ip; assay type: ADME, organism-based; set-up: dose 40 mg/kg
[2] = Cmax in CD-1 mouse at 10 mg/kg, po by HPLC-MS/MS analysis; assay type: ADME, organism-based; set-up: route oral, dose 10 mg/kg; details: in vivo
[3] = Half life in CD-1 mouse at 40 mg/kg, ip by HPLC-MS/MS analysis; assay type: ADME, organism-based; details: in vivo
[4] = Apparent permeability across apical to basolateral side in human Caco-2 cells; assay type: ADME, cell-based
[5] = AUC in CD-1 mouse at 40 mg/kg, ip by HPLC-MS/MS analysis; assay type: ADME, organism-based; set-up: dose 40 mg/kg; details: in vivo
[6] = AUC in CD-1 mouse at 1 mg/kg, iv by HPLC-MS/MS analysis; assay type: ADME, organism-based; set-up: dose 1 mg/kg; details: in vivo
[7] = Lipophilicity, logP of compound; assay type: physicochemical; details: octanol/water
[8] = AUC in Wistar rat plasma at 40 mg/kg, ip; assay type: ADME, organism-based; set-up: dose 40 mg/kg
[9] = AUC(0 to t) in CD-1 mouse at 10 mg/kg, po by HPLC-MS/MS analysis; assay type: ADME, organism-based; set-up: dose 10 mg/kg; details: in vivo
[10] = Dissociation constant, pKa of compound; assay type: physicochemical
[11] = Volume of distribution at steady state in CD-1 mouse at 1 mg/kg, iv by HPLC-MS/MS analysis; assay type: ADME, organism-based; details: in vivo, read-out: Vdss
[12] = Bioavailability in CD-1 mouse plasma at 40 mg/kg, ip by HPLC-MS/MS analysis; assay type: ADME, organism-based
[13] = Half life in CD-1 mouse at 1 mg/kg, iv by HPLC-MS/MS analysis; assay type: ADME, organism-based; details: in vivo
[14] = Tmax in CD-1 mouse at 10 mg/kg, po by HPLC-MS/MS analysis; assay type: ADME, organism-based; details: in vivo
[15] = Oral bioavailability in CD-1 mouse plasma at 10 mg/kg by HPLC-MS/MS analysis; assay type: ADME, organism-based
[16] = AUC(0 to t) in CD-1 mouse at 40 mg/kg, ip by HPLC-MS/MS analysis; assay type: ADME, organism-based; set-up: dose 40 mg/kg; details: in vivo
[17] = Cmax in CD-1 mouse at 40 mg/kg, ip by HPLC-MS/MS analysis; assay type: ADME, organism-based; set-up: route intraperitoneal, dose 40 mg/kg; details: in vivo
[18] = AUC(0 to t) in CD-1 mouse at 1 mg/kg, iv by HPLC-MS/MS analysis; assay type: ADME, organism-based; set-up: dose 1 mg/kg; details: in vivo
[19] = Tmax in CD-1 mouse at 40 mg/kg, ip by HPLC-MS/MS analysis; assay type: ADME, organism-based; details: in vivo
[20] = Distribution coefficient, logD of compound; assay type: physicochemical; details: octanol/water
[21] = Clearance in CD-1 mouse at 1 mg/kg, iv by HPLC-MS/MS analysis; assay type: ADME, organism-based; details: in vivo

AUC [1]: 2430 ng·h/mL
Cmax [2]: 130 ng/mL
half-life [3]: 36 min
Papp A→B [4]: 16.9 ×10⁻⁶ cm/s
AUC [5]: 5960 ng·h/mL
AUC [6]: 93 ng·h/mL
logP [7]: 3.7
AUC [8]: 2810 ng·h/mL
AUC(0-t) [9]: 122 ng·h/mL
pKa [10]: 8.9
Vd [11]: 2.9 L/kg
bioavailability [12]: > 100%
half-life [13]: 24 min
Tmax [14]: 30 min
bioavailability [15]: 13%
AUC(0-t) [16]: 5950 ng·h/mL
Cmax [17]: 11300 ng/mL
AUC(0-t) [18]: 92 ng·h/mL
Tmax [19]: 4.8 min
logD [20]: 2.2
clearance [21]: 180 mL/min/kg
SMILES: CCC(=O)N(CC1(N2CCN(CC(C)C)CC2)CCOCC1)c1cccc(C(F)(F)F)n1

Source: ChEMBL document CHEMBL5032513, “Propionamide Derivatives as Dual μ-Opioid Receptor Agonists and σ1 Receptor Antagonists for the Treatment of Pain” (J Med Chem, 2021)
